According to US10604555B2, “GIP derivatives and uses thereof” (priority 2018, dated 2020):
*1 amine or outer side, *2 acyl side, *3 side chain or, on linkers, in order; H or OH if unused. Where a SMILES comes first, the peptide text is derived from it. Side-chain parts run from the residue outwards. [ ]: non-standard residue; d: D form. The star is where a group is joined. C18 diacid = O=C(O)CCCCCCCCCCCCCCCCC(=O)*; γGlu = O=C(O)[C@H](CCC(=O)[*:2])N[*:1]; Nle = CCCC[C@H](N)C(=O)O; AEEA = NCCOCCOCC(=O)O; Aib = CC(C)(N)C(=O)O

What follows are molecules tested against T1, human GIP receptor (Homo sapiens, UniProt P48546) (assay: In vitro potency (CRE luciferase; whole cells), BHK CRE luc2P hGIPR). Settings: 0.2% HSA.
T1 construct: expressed in transfected cells; host or cells: BHK (parent line BHKTS13), BHK CRE luc2P hGIPR clone #5
T1 sequence (P48546 22-466): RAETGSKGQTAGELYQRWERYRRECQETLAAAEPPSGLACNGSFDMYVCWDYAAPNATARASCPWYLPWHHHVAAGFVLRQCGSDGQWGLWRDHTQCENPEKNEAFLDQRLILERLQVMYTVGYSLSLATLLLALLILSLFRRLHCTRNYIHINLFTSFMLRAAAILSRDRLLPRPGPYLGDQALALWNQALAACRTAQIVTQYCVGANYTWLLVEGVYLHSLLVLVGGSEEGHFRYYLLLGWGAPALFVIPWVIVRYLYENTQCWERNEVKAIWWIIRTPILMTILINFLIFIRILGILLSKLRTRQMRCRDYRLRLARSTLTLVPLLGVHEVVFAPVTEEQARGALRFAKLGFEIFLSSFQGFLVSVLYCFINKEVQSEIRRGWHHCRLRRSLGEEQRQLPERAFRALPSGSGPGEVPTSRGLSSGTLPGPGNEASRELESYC
Type: cell-based
Protocol: In Vitro Potency (CRE Luciferase; Whole Cells)
The in vitro potency is the measure of human GIP, GLP-1 or glucagon receptor activation, respectively, in a whole cell assay.
In vitro potency was determined by measuring the response of the human GIP, GLP-1 or glucagon receptor in a reporter gene assay in individual cell lines. […] When the respective receptor is activated it results in the production of cAMP, which in turn results in the luciferase protein being expressed. When assay incubation is completed the luciferase substrate (luciferin) is added and the enzyme converts luciferin to oxyluciferin to produce bioluminescence. The luminescence is measured as the readout for the assay.
The cells were derived from a clone containing the CRE luciferase element and were established by further transfection with the respective receptor to obtain the current clone.
The cells were cultured at 5% CO2 in Cell Culture Medium. They were aliquoted and stored in liquid nitrogen. The cells were kept in passage and were seeded out the day before each assay.
The Assay Buffer consisted of 1% ovalbumin and 0.1% Pluronic F-68 in Assay Medium with the addition of human serum albumin at twice the indicated concentrations.
1) Cells were plated at 5000 cells/well and incubated overnight.
2) Cells were washed three times in PBS.
3) Assay Medium (50 μl aliquot) with or without serum albumin was added to each well in the assay plate.
4) Stocks of the test compounds and reference compounds were diluted to a concentration of 0.2 μM in Assay Buffer. […] 8) The cells were washed three times with PBS plus some liquid in each well. 9) A 100 μl aliquot of steadylite plus reagent was added to each well of the assay plate (reagent was light sensitive). 10) Each assay plate was covered with aluminum foil to protect it from light and shaken for 30 min at room temperature. 11) Each assay plate was read in a microtiter plate reader. Calculations and Results
The data from the microtiter plate reader was transferred to GraphPad Prism software. The software performs a non-linear regression (log(agonist) vs response).
A minimum of two replicates was measured for each sample. The reported values are averages of the replicates.

Row | EC50 | SMILES
1 | 0.0915 nM | CC[C@H](C)[C@H](NC(=O)[C@H](CO)NC(=O)[C@H](Cc1ccc(O)cc1)NC(=O)[C@H](CC(=O)O)NC(=O)[C@H](CO)NC(=O)[C@@H](NC(=O)[C@H](Cc1ccccc1)NC(=O)[C@@H](NC(=O)CNC(=O)[C@H](CCC(=O)O)NC(=O)[C@H](C)NC(=O)[C@@H](Cc1ccc(O)cc1)NC(C)=O)[C@@H](C)O)[C@@H](C)CC)C(=O)N[C@@H](C)C(=O)N[C@@H](CC(=O)O)C(=O)N[C@@H](CC(=O)O)C(=O)N[C@@H](CCCCN)C(=O)N[C@H](C(=O)N[C@@H](CCCNC(=N)N)C(=O)N[C@@H](CCC(N)=O)C(=O)N[C@@H](CCC(=O)O)C(=O)N[C@@H](CC(=O)O)C(=O)N[C@@H](Cc1ccccc1)C(=O)N[C@H](C(=O)N[C@@H](CCCCNC(=O)COCCOCCNC(=O)COCCOCCNC(=O)CC[C@H](NC(=O)CCCCCCCCCCCCCCCCC(=O)O)C(=O)O)C(=O)N[C@@H](Cc1c[nH]c2ccccc12)C(=O)N[C@@H](CC(C)C)C(=O)N[C@@H](CC(C)C)C(=O)N[C@@H](C)C(=O)N[C@@H](CCC(N)=O)C(=O)N[C@@H](CCCCN)C(=O)NCC(=O)O)C(C)C)[C@@H](C)CC [Compound 19, N{1}-acetyl,N{Epsilon-24}-[2-[2-[2-[[2-[2-[2-[[(4S)-4-carboxy-4-(17-carboxyheptadecanoylamino)butanoyl]amino]ethoxy]ethoxy]acetyl]amino]ethoxy]ethoxy]acetyl]-[D-Tyr1,Asp14,Arg18,Glu20, Lys24]-hGIP(1-31)] (Ac-[dY]AEGTFISDYSIADDKIRQEDFVK([AEEA-AEEA-γGlu-C18 diacid])WLLAQKG-OH; C-terminus assumed)
2 | 0.158 nM | CCCC[C@H](NC(=O)[C@H](C)NC(=O)[C@@H](NC(=O)[C@H](CO)NC(=O)[C@H](Cc1ccc(O)cc1)NC(=O)[C@H](CC(=O)O)NC(=O)[C@H](CO)NC(=O)[C@@H](NC(=O)[C@H](Cc1ccccc1)NC(=O)[C@@H](NC(=O)CNC(=O)[C@H](CCC(=O)O)NC(=O)C(C)(C)NC(=O)[C@@H](N)Cc1ccc(O)cc1)[C@@H](C)O)[C@@H](C)CC)[C@@H](C)CC)C(=O)N[C@@H](CC(=O)O)C(=O)N[C@@H](CCCCN)C(=O)N[C@H](C(=O)N[C@@H](Cc1c[nH]cn1)C(=O)N[C@@H](CCC(N)=O)C(=O)N[C@@H](CCC(=O)O)C(=O)N[C@@H](CC(=O)O)C(=O)N[C@@H](Cc1ccccc1)C(=O)N[C@H](C(=O)N[C@@H](CCCCNC(=O)CC[C@H](NC(=O)CC[C@H](NC(=O)CC[C@H](NC(=O)CC[C@H](NC(=O)CCCCCCCCCCCCCCCCC(=O)O)C(=O)O)C(=O)O)C(=O)O)C(=O)O)C(=O)N[C@@H](Cc1c[nH]c2ccccc12)C(=O)N[C@@H](CC(C)C)C(=O)N[C@@H](CC(C)C)C(=O)N[C@@H](C)C(=O)N[C@@H](CCC(N)=O)C(=O)N[C@@H](CCCCN)C(=O)NCC(=O)O)C(C)C)[C@@H](C)CC [Compound 20, N{Epsilon-24}-[(4S)-4-carboxy-4-[[(4S)-4-carboxy-4-[[(4S)-4-carboxy-4-[[(4S)-4-carboxy-4-(17-carboxyheptadecanoylamino)butanoyl]amino]butanoyl]amino]butanoyl]-amino]butanoyl]-[Aib2,Nle14,Glu20,Lys24]-hGIP(1-31)] (H-Y[Aib]EGTFISDYSIA[Nle]DKIHQEDFVK([γGlu-γGlu-γGlu-γGlu-C18 diacid])WLLAQKG-OH; N-terminus and C-terminus assumed)
3 | 0.0202 nM | CCCC[C@H](NC(=O)[C@H](C)NC(=O)[C@@H](NC(=O)[C@H](CO)NC(=O)[C@H](Cc1ccc(O)cc1)NC(=O)[C@H](CC(=O)O)NC(=O)[C@H](CO)NC(=O)[C@@H](NC(=O)[C@H](Cc1ccccc1)NC(=O)[C@@H](NC(=O)CNC(=O)[C@H](CCC(=O)O)NC(=O)C(C)(C)NC(=O)[C@@H](N)Cc1ccc(O)cc1)[C@@H](C)O)[C@@H](C)CC)[C@@H](C)CC)C(=O)N[C@@H](CC(=O)O)C(=O)N[C@@H](CCCCN)C(=O)N[C@H](C(=O)N[C@@H](CCCNC(=N)N)C(=O)N[C@@H](CCC(N)=O)C(=O)N[C@@H](CCC(N)=O)C(=O)N[C@@H](CC(=O)O)C(=O)N[C@@H](Cc1ccccc1)C(=O)N[C@H](C(=O)N[C@@H](CCCCNC(=O)CC[C@H](NC(=O)CC[C@H](NC(=O)CC[C@H](NC(=O)CCCCCCCCCCCCCCCCC(=O)O)C(=O)O)C(=O)O)C(=O)O)C(=O)N[C@@H](Cc1c[nH]c2ccccc12)C(=O)N[C@@H](CC(C)C)C(=O)N[C@@H](CC(C)C)C(=O)N[C@@H](C)C(=O)N[C@@H](CCC(N)=O)C(=O)N[C@@H](CCCCN)C(=O)NCC(=O)N[C@@H](CCCCN)C(=O)N[C@@H](CCC(=O)O)C(=O)N[C@@H](CC(N)=O)C(=O)N[C@@H](CC(=O)O)C(=O)N[C@@H](Cc1c[nH]c2ccccc12)C(=O)N[C@@H](CCCCN)C(=O)N[C@@H](Cc1c[nH]cn1)C(=O)N[C@@H](CC(N)=O)C(=O)N[C@H](C(=O)N[C@H](C(=O)N[C@@H](CCC(N)=O)C(=O)O)[C@@H](C)O)[C@@H](C)CC)C(C)C)[C@@H](C)CC [Compound 34, N{Epsilon-24}-[(4S)-4-carboxy-4-[[(4S)-4-carboxy-4-[[(4S)-4-carboxy-4-(17-carboxyheptadecanoylamino)butanoyl]amino]butanoyl]amino]butanoyl]-[Aib2,Nle14,Arg18,Lys24,Glu33]-hGIP]
